Earlier results as cited in patent US20090004306A1, “Composition for treatment of diabetes and maintaining healthy blood glucose levels” (priority 2007, published 2009).

Experiments:
[1] = Kim study

## [Cr] [chromium]
People with glucose intolerance and type 1, type 2, gestational, and steroid-induced diabetes
  glucose levels and related variables: improve glucose levels and related variables

## O=C/C=C/c1ccccc1 [cinnamaledhyde]
[1]
  hypoglycemic properties / blood glucose level: exhibit hypoglycemic properties

## chromium picolinate
Ample intakes, individuals and diabetics
  insulin sensitivity and glycemic control: promote insulin sensitivity in many individuals and improve glycemic control in some diabetics
